Assay results: US4740233A, “Substituted 1,2,4-triazolo[1,5-a]-pyrimidine-2-sulfonamides and compositions and methods of controlling undesired vegetation and suppressing the nitrification of ammonium nitrogen in soil” (The Dow Chemical Company, priority 1986, dated 1988)

What was measured:
[1] = test system: wild oats; experiment: Preemergent control of plant species; type: in vivo; conditions: Avena fatua, pre-emergence, 336 h; 0.25 lb/acre; read-out: percent preemergent control
Procedure, shortened: (§1)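 Seeds sown in agricultural soil in greenhouse beds, then aqueous-emulsion compositions applied uniformly to the bed surface at listed rates. Beds kept two weeks under greenhouse growth conditions with watering. Control expressed as growth reduction versus water-treated beds of the same species.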

[2] = test system: velvetleaf; experiment: Preemergent control of plant species; type: in vivo, Abutilon theophrasti; conditions: Abutilon theophrasti, pre-emergence, 336 h; 0.25 lb/acre; read-out: percent preemergent control
Procedure, shortened: as §1

[3] = test system: yellow foxtail; experiment: Preemergent control of plant species; type: in vivo, Setaria lutescens; conditions: Setaria, pre-emergence, 336 h; 0.25 lb/acre; read-out: percent preemergent control
Procedure, shortened: as §1

[4] = test system: pigweed; experiment: Preemergent control of plant species; type: in vivo, Amaranthus spp.; conditions: Amaranthus retroflexus, pre-emergence, 336 h; 0.25 lb/acre; read-out: percent preemergent control
Method: (§2) The seeds of various species of plants were planted in beds of good agricultural soil in a greenhouse. A number of compositions of the present invention, generally in the nature of an aqueous emulsion, were applied at rates listed in the table so as to deposit a predetermined amount of active ingredients uniformly throughout the surface of the bed. Another seed bed was treated only with water to serve as a control. After treatment the seed beds were maintained for two weeks under greenhouse conditions conducive for good plant growth and watered as necessary. Control refers to the reduction in growth compared to the observed results of the same untreated species.

[5] = test system: corn; experiment: Preemergent control of plant species; type: in vivo, Zea mays; conditions: Zea mays, pre-emergence, 336 h; 0.25 lb/acre; read-out: percent preemergent control
Procedure, shortened: as §1

[6] = test system: barnyardgrass; experiment: Control of aquatic plant species (paddy water); type: in vivo, Echinochloa crusgalli; conditions: Echinochloa crus-galli, 216 h, nine days, read-out: Percent control; for pest or weed control at 250 g/ha: 0.25 Kg/Ha
Method: In testing for such utility, the plant species to be tested were transplanted into 16 oz. containers into about 2 inches of soil when they were in the 1-2 inch stage and then flooded to a depth of about 1 inch. An acetone concentrate of the chemical to be tested was then injected into the paddy water, the volume injected being varied as desired to provide the desired concentration. Percent control was evaluated nine days after application.

[7] = test system: yellow nutsedge; experiment: Preemergent control of plant species; type: in vivo, Cyperus esculentus; conditions: Cyperus, pre-emergence, 336 h; 0.25 lb/acre; read-out: percent preemergent control
Procedure, shortened: as §1

[8] = test system: johnson grass; experiment: Preemergent control of plant species; type: in vivo, Sorghum halepense; conditions: Sorghum halepense, pre-emergence, 336 h; 0.25 lb/acre; read-out: percent preemergent control
Procedure, shortened: as §1

[9] = test system: rice; experiment: Control of aquatic plant species (paddy water); type: in vivo, Oryza sativa; conditions: Oryza sativa, 216 h, nine days, read-out: Percent control; for pest or weed control at 250 g/ha: 0.25 Kg/Ha
Procedure, shortened: (§3)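 Plants transplanted at 1-2 inch stage into soil, flooded about 1 inch deep; acetone concentrate of compound injected into paddy water at varied volumes to set concentration. Percent control scored nine days after application.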

[10] = test system: sprangletop; experiment: Control of aquatic plant species (paddy water); type: in vivo, Leptochloa filiformis; conditions: Leptochloa filiformis, 216 h, nine days, read-out: Percent control; for pest or weed control at 250 g/ha: 0.25 Kg/Ha
Procedure, shortened: as §3

[11] = test system: cotton; experiment: Preemergent control of plant species; type: in vivo, Gossypium spp.; conditions: Gossypium hirsutum, pre-emergence, 336 h; 0.25 lb/acre; read-out: percent preemergent control
Procedure, shortened: as §1

[12] = test system: rape; experiment: Preemergent control of plant species; type: in vivo, Brassica napus; conditions: Brassica napus, pre-emergence, 336 h; 0.25 lb/acre; read-out: percent preemergent control
Procedure, shortened: as §1

[13] = test system: rice; experiment: Preemergent control of plant species; type: in vivo, Oryza sativa; conditions: Oryza sativa, pre-emergence, 336 h; 0.25 lb/acre; read-out: percent preemergent control
Procedure, shortened: as §1

[14] = test system: barnyardgrass; experiment: Preemergent control of plant species; type: in vivo, Echinochloa crusgalli; conditions: Echinochloa crus-galli, pre-emergence, 336 h; 0.25 lb/acre; read-out: percent preemergent control
Procedure, shortened: as §1

[15] = test system: nitrification of ammonium nitrogen; experiment: Suppression of nitrification of ammonium nitrogen in soil; conditions: 27° C.
Procedure, shortened: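 Soil (20 g) moistened to its 1/3 bar tension value, mixed with test chemical and incubated sealed for two weeks at 27° C. Nitrate extracted with ammonium sulfate solution and measured by nitrate-specific ion electrode; value given as % NH4-N remaining.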

[16] = test system: wheat; experiment: Preemergent control of plant species; type: in vivo, Triticum aestivum; conditions: Triticum aestivum, pre-emergence, 336 h; 0.25 lb/acre; read-out: percent preemergent control
Procedure, shortened: as §1

[17] = test system: sugar beet; experiment: Preemergent control of plant species; type: in vivo, Beta saccharifera; conditions: Beta vulgaris, pre-emergence, 336 h; 0.25 lb/acre; read-out: percent preemergent control
Procedure, shortened: as §1

[18] = test system: soybean; experiment: Preemergent control of plant species; type: in vivo, Glycine max.; conditions: Glycine max, pre-emergence, 336 h; 0.25 lb/acre; read-out: percent preemergent control
Procedure, shortened: as §1

[19] = test system: yellow nutsedge; experiment: Control of aquatic plant species (paddy water); type: in vivo, Cyperus esculentus; conditions: Cyperus, 216 h, nine days, read-out: Percent control; for pest or weed control at 250 g/ha: 0.25 Kg/Ha
Procedure, shortened: as §3

[20] = test system: sorghum; experiment: Preemergent control of plant species; type: in vivo, Sorghum vulgare; conditions: Sorghum, pre-emergence, 336 h; 0.25 lb/acre; read-out: percent preemergent control
Procedure, shortened: as §1

[21] = test system: crabgrass; experiment: Preemergent control of plant species; type: in vivo, Digitaria spp.; conditions: Digitaria sanguinalis, pre-emergence, 336 h; 0.25 lb/acre; read-out: percent preemergent control
Method: as §2

[22] = test system: annual morning glory; experiment: Preemergent control of plant species; type: in vivo, Ipomoea spp.; conditions: Ipomoea, pre-emergence, 336 h; 0.25 lb/acre; read-out: percent preemergent control
Procedure, shortened: as §1

[23] = test system: jimsonweed; experiment: Preemergent control of plant species; type: in vivo, Datura stramonium; conditions: Datura stramonium, pre-emergence, 336 h; 0.25 lb/acre; read-out: percent preemergent control
Procedure, shortened: as §1

SMILES	pest or weed control at 280.212 g/ha [1]	pest or weed control at 280.212 g/ha [2]	pest or weed control at 280.212 g/ha [3]	pest or weed control at 280.212 g/ha [4]	plant injury at 280.212 g/ha [5]	pest or weed control at 250 g/ha [6]	pest or weed control at 280.212 g/ha [7]	pest or weed control at 280.212 g/ha [8]	plant injury at 280.212 g/ha [11]	plant injury at 280.212 g/ha [12]	plant injury at 280.212 g/ha [13]	pest or weed control at 280.212 g/ha [14]	% NH4-N Remaining After 2 Weeks Incubation ([15]; 1 ppm)	plant injury at 280.212 g/ha [16]	plant injury at 280.212 g/ha [17]	plant injury at 280.212 g/ha [18]	plant injury at 280.212 g/ha [20]	pest or weed control at 280.212 g/ha [21]	pest or weed control at 280.212 g/ha [22]	pest or weed control at 280.212 g/ha [23]	also measured
Cc1cc(C)n2nc(S(=O)(=O)Nc3ccccc3C(F)(F)F)nc2n1 [Compound 13, 5,7-Dimethyl-N-(2-trifluoromethylphenyl)-1,2,4-triazolo[1,5-a]pyrimidine-2-sulfonamide]	10%	95%	90%	95%	80%	93%	98%	95%	95%	98%	95%	95%	89%	20%	98%	95%	98%	80%	90%	70%	pest or weed control at 250 g/ha [9]: 97%; pest or weed control at 250 g/ha [10]: 10%; % NH4-N Remaining After 2 Weeks Incubation ([15]; 0.06 ppm): 73%; % NH4-N Remaining After 2 Weeks Incubation ([15]; 0.125 ppm): 78%; % NH4-N Remaining After 2 Weeks Incubation ([15]; 0.25 ppm): 81%; % NH4-N Remaining After 2 Weeks Incubation ([15]; 0.5 ppm): 85%; pest or weed control at 250 g/ha [19]: 93%
Cc1cc(C)n2nc(S(=O)(=O)Nc3c(F)cccc3F)nc2n1 [Compound 25, 5,7-Dimethyl-N-(2,6-difluorophenyl)-1,2,4-triazolo[1,5-a]pyrimidine-2-sulfonamide]	95%	98%	100%	100%	100%	95%	95%	98%	98%	100%	100%	98%	79%	70%	100%	98%	–	100%	80%	98%	pest or weed control at 250 g/ha [9]: 97%; pest or weed control at 250 g/ha [10]: 0%; % NH4-N Remaining After 2 Weeks Incubation ([15]; 0.06 ppm): 31%; % NH4-N Remaining After 2 Weeks Incubation ([15]; 0.125 ppm): 46%; % NH4-N Remaining After 2 Weeks Incubation ([15]; 0.25 ppm): 48%; % NH4-N Remaining After 2 Weeks Incubation ([15]; 0.5 ppm): 73%; pest or weed control at 250 g/ha [19]: 90%
Cc1cc(C)n2nc(S(=O)(=O)Nc3c(C)cccc3Cl)nc2n1 [Compound 31]	98%	95%	100%	95%	95%	–	–	100%	80%	98%	98%	100%	86%	98%	100%	95%	50%	100%	100%	65%	pest or weed control at 125 g/ha ([6]; 0.125 Kg/Ha): 97%; pest or weed control at 125 g/ha ([9]; 0.125 Kg/Ha): 90%; pest or weed control at 125 g/ha ([10]; 0.125 Kg/Ha): 45%; % NH4-N Remaining After 2 Weeks Incubation ([15]; 0.01 ppm): 34%; % NH4-N Remaining After 2 Weeks Incubation ([15]; 0.1 ppm): 66%; % NH4-N Remaining After 2 Weeks Incubation ([15]; 10 ppm): 91%; pest or weed control at 125 g/ha ([19]; 0.125 Kg/Ha): 97%
COc1cc(C)n2nc(S(=O)(=O)Nc3c(Cl)cccc3Cl)nc2n1 [Compound 178]	–	40%	0%	60%	0%	–	0%	0%	65%	80%	0%	25%	43%	–	95%	0%	0%	0%	10%	0%	pest or weed control at 2000 g/ha ([6]; 2.0 Kg/Ha): 20%; pest or weed control at 2000 g/ha ([9]; 2.0 Kg/Ha): 50%; pest or weed control at 2000 g/ha ([10]; 2.0 Kg/Ha): 0%; % NH4-N Remaining After 2 Weeks Incubation ([15]; 0.1 ppm): 0%; % NH4-N Remaining After 2 Weeks Incubation ([15]; 10 ppm): 91%; pest or weed control at 2000 g/ha ([19]; 2.0 Kg/Ha): 90%
